Laboratory results from patent US6355677B1, “Adrenoleukodystrophy treatments and drug screening” (The Johns Hopkins University, priority 1998, dated 2002).
Values joined by “and” are separate entries in the source; they are usually repeats but may differ in a detail not shown here. Equal values may be shown once. “Also recorded” adds a separate entry of the source.

Columns and labels:
ALDP [1] = assay: Semi-quantitative RT-PCR, human primary fibroblasts; type: cell-based; details: normal fibroblasts, 5 mM, 2 days
Description: (§1) Semi-quantitative RT-PCR was done on the mRNA isolated from these cells (FIG. 1). […] In addition, the expression of acyl-CoA oxidase (AOX), the rate-limiting enzyme in VLCFA β-oxidation, was not affected. Although previous studies have reported that ALDR mRNA was not detectable in fibroblasts by either northern or RT-PCR analyses, those RT-PCR studies used about 66 ng of CDNA; we used about 250 ng of cDNA.
(§2) Total RNA from tissue culture cells (10^6-10^7 cells/sample) was isolated using TRizol Reagent™ (Life Technologies), treated with DNase I (100-200 units in 40 mM HC, 10mM NaC, 6 mM MgCl2, pH 7.3), incubated at 37° C. for 30 min, extracted with pheno/chloroform, and precipitated with isopropanol. cDNA was generated using MMLV reverse transcriptase (RT) (Life Technologies). PCR was done in the linear range of amplification (determined for each primerpair-cDNA combination). For each cDNA sample, a ‘cocktail’ was prepared, containing PCR buffer (Promega), 200 µM of each DNTP, 1.5 mM MgCl2, 250 ng cDNA, 0.25 U of Taq polymerase (Promega) and […]. The ‘cocktail’ was divided into separate tubes containing cDNA specific primers.
(§3) The PCR primers used are listed below. In the parentheses, h indicates human and m, mouse; this is followed by the gene name, product size and annealing temperature. For primer sequences, F is forward and R is reverse. (hALD, 249, 64° C.) F: 5′-[…]-3′, R: 5′-[…]-3′; (mALD, 526, 59° C.) F: 5′-[…]-3′, R: 5′-[…]-3′; (hPMP70, 405, 60° C.) F: 5′-[…]-3′, R: 5′-[…]-3′; (mPMP70, 405, 60° C.) F: 5′-TTr[…]-3′, R: 5′-[…]-3′; (hALDR, 312, 56° C.) F: 5-[…]-3′, R: 5′-[…]-3′; (mALDR, 711, 57° C.) F: 5′-[…]-3′, R: 5′-[…]-3′; (hPMP69, 319, 60° C.) F: 5′-[…]-3′, R: 5-[…]-3′; (hAOX, 405, 60° C.) F: 5′-[…]-3′, R: 5′[…]-3′; (mAOX, 247, 60° C.) F: 5′-[…]r[…]-3′, R: 5′-[…]-3′; (hPPARα, 347, 60° C.) F: 5-[…]r[…]rCC-3′, R: 5′-[…]-3′; (mFPPARa, 268, 60° C.) F: 5′-GATTr[…]-TGAGG-3, R: 5′-[…]-3′; (hPex11α 658, 55° C.) F: 5-[…]-3′, R: 5′-[…]-3′; (mpex11α, 720, 55° C.) F: 5′-[…]r[…]-3′, R: 5′-[…]-3′; (β-Actin, 460, 62° C.) F:5′-[…]-3′, R: 5′-[…]-3, (glyceraldehyde 3-phosphate dehydrogenase (GAPDH), 528, 62° C.) F: 5′-[…]-3, R: 5′-[…]-3′. β-Actin and GAPDH primers were used for both human and mouse analyses.

ALDR mRNA [2] = assay: as above; type: cell-based; details: normal and X-ALD fibroblasts, 5 mM, 2 days, relative to β-actin
Description: as §1, §2, §3

PMP69 = assay: as above; type: cell-based; details: X-ALD or normal fibroblasts, 5 mM, 2 days
Description: as §1, §2, §3

PMP70 [3] = assay: as above; type: cell-based; details: X-ALD or normal fibroblasts, 5 mM, 2 days
Description: as §1, §2, §3

acyl-CoA oxidase (AOX) [4] = assay: as above; type: cell-based; details: 5 mM
Description: as §1, §2, §3

ALDP [5] = assay: Semi-quantitative RT-PCR, mouse primary fibroblasts; type: cell-based; details: normal fibroblasts, 5 mM, 2 days
Description: as §1, §2, §3

ALDR mRNA [6] = assay: as above; type: cell-based; details: normal and X-ALD fibroblasts, 5 mM, 2 days, relative to GAPDH
Description: as §1, §2, §3

PMP70 [7] = assay: as above; type: cell-based; details: X-ALD or normal fibroblasts, 5 mM, 2 days
Description: as §1, §2, §3

acyl-CoA oxidase (AOX) [8] = assay: as above; type: cell-based; details: 5 mM, 2 days
Description: as §1, §2, §3

PPARα = assay: as above; type: cell-based; details: mouse X-ALD fibroblasts, 5 mM, 2 days
Description: as §2
(§4) The PCR primers used are listed below. In the parentheses, h indicates human and m, mouse; this is followed by the gene name, product size and annealing temperature. For primer sequences, F is forward and R is reverse. […]

Pex11α = assay: as above; type: cell-based; details: normal or X-ALD mouse fibroblasts, 10 day exposure to 5 mM; data not shown
Description: as §2, §4

[9] = system: human primary fibroblasts; assay: Phytanic acid oxidation ([2,3-3H]-phytanic acid); type: cell-based; details: 5 mM, 10 days
Description: Phytanic acid oxidation occurs exclusively in the peroxisomal matrix and can therefore serve as a marker for peroxisomal function. […] SCP2 is a 15-kDa protein located exclusively in the peroxisomal matrix.
For VLCFA measurements, total lipids were extracted, converted to methyl esters, purified by TLC and subjected to capillary GC analysis as described. Duplicate assays were set up independently and were assayed on different days. C24:0 β-oxidation activity of human and mouse fibroblasts and human lymphoblastoid cells was determined by measuring their capacity to degrade [1-^14C]-C24:0 fatty acid (American Radiolabeled Chemicals, St. Louis, Mo.) to water-soluble products as described. Phytanic acid oxidation was measured as described. Cells were incubated with [2,3-^3H]-phytanic acid for 24 hours, and the release of ^3H-H2O to the aqueous medium was determined (activity in pmol/hr per mg protein).

X-ALD mice = assay: In vivo efficacy: VLCFA levels in brain and adrenal glands after dietary treatment; design: species or system mouse
Description: To measure the in vivo efficacy of 4-PBA, we supplemented mouse chow and water with 4-PBA.
In vivo delivery of 4-PBA to X-ALD mice. 4-PBA was delivered to X-ALD mice in their regular chow and water. 4-PBA chow was prepared by B'OServ (Holton Industries, Frenchtown, N.J.). […] Brains and adrenal glands from normal LD and X-ALD/4-PBA mice were collected for VLCFA analysis as described.

[10] = used for many years in patients; cited from earlier work
[11] = dietary 4-PBA (about 70 mg per day), 6 weeks

O=C(O)CCCc1ccccc1 [4-PBA, 4-Phenyl butyrate]
ALDP expression level (ALDP [1]): little, if any, effect | ALDR mRNA level (ALDR mRNA [2]): substantially increased; also recorded: substantial increase | PMP69 expression level (PMP69): little, if any, effect | PMP70 expression level (PMP70 [3]): little, if any, effect | AOX expression (acyl-CoA oxidase (AOX) [4]; 2 days): unchanged; also recorded: not affected | AOX expression (acyl-CoA oxidase (AOX) [4]; 10 days): remained unchanged | ALDP expression level (ALDP [5]): little, if any, effect | ALDR mRNA level (ALDR mRNA [6]): substantially increased; also recorded: substantial increase | PMP70 expression level (PMP70 [7]): little, if any, effect | AOX expression (acyl-CoA oxidase (AOX) [8]): unchanged; also recorded: not affected | PPARα expression (PPARα): increased | Pex11α transcripts (Pex11α): undetectable | Increase in phytanic acid oxidation ([9]; X-ALD human primary fibroblasts): twofold | Increase in phytanic acid oxidation ([9]; normal human primary fibroblasts): twofold | Correction of brain C24:0 (X-ALD mice; [11]): complete correction; also recorded: complete normalization | Correction of brain C26:0 (X-ALD mice; [11]): 78% and 80% | Adrenal gland VLCFA (C24:0 and C26:0) levels (X-ALD mice; dietary 4-PBA, 4 weeks): substantial reduction | Brain VLCFA (C24:0 and C26:0) levels (X-ALD mice; dietary 4-PBA, 4 weeks): substantial reduction | Side effects [10]: few, if any, side effects
